Converted amounts (≈) assume the structure as drawn. Read-outs that look alike come from different tables or passages of the source.

This is an account of results in US10533015B1, “Opioid receptor antagonist prodrugs” (Nirsum Laboratories, Inc., priority 2019, dated 2020).

Data set [1] can be described thus: Polymorph screening of solid state drug substances. Particulars: for Dry method and appearance: after stirring 50 °C 72 hours, dried solid; for XRPD results (Dried): dried solid after 50 °C 72 hours; for Visual observation 50° C. / Visual observation RT: target conc. 100 mg/ml.
Data set [2] in a line: Plasma stability assay, rat plasma. Type of data set: in vitro ADME. Particulars: 10 μM, 37° C. Summed up:
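Compound is added to plasma (dog, monkey, human: 2 μM final, 1% solvent) and held at 37 °C, with aliquots taken at 0, 10, 30, 60 and 120 min; rat samples are taken at 0, 15, 120, 480 and 1440 min. Parent remaining (%) is then determined by HPLC-MS.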

Data set [3] in a line: physchem. Conditions: thermodynamic from solid; for solubility at 24 h: 25 °C, obs. temp. 25 °C; for solubility at 24 h / solubility: heating temp. 60 °C; for solubility: obs. temp. 40 °C.
[4] abbreviates: heating temp. 60 °C, obs. temp. 25 °C.
The mark [5] stands for this setting: heating temp. 60 °C, obs. temp. 40 °C.

As to `C=C1CC[C@@]2(O)C3Cc4ccc(OC(=O)OCCCCCCCCCCCCCC)c5c4[C@@]2(CCN3CC2CC2)[C@H]1O5` [Compound 31, (4aS,7aS,12bS)-3-(cyclopropylmethyl)-4a-hydroxy-7-methylene-2,3,4,4a,5,6,7,7a-octahydro-1H-4,12-methanobenzofuro[3,2-e]isoquinolin-9-yl tetradecyl carbonate], the “Approximate Solubility (mg/mL) in Excipient: Cottonseed oil” value (“Approximate Solubility … Cottonseed oil” below) under setting [4] was over 416.9 mg/mL. For the same compound, the “Approximate Solubility (mg/mL) in Excipient: Sesame oil” value under setting [4] is over 413.5 mg/mL. Also, where the note is “heating temp. 40 °C, obs. temp. 40 °C”, the “Equilibrium solubility (mg/mL) Water” value is under 0.001 mg/mL. For the same compound, the “Dry method and appearance” value in data set [1] (Acetone), in data set [1] (EtOAc), in data set [1] (Heptane), in data set [1] (Isopropanol) and in data set [1] (MTBE) was “Evaporation/white powder” in each case. For the same compound, the “XRPD results (Dried)” value in data set [1] (Acetone), in data set [1] (EtOAc), in data set [1] (Heptane), in data set [1] (Isopropanol) and in data set [1] (MTBE) was “Pattern A” throughout. Also, the “Visual observation 50° C.” value in data set [1] (Acetone), in data set [1] (EtOAc), in data set [1] (Heptane), in data set [1] (Isopropanol) and in data set [1] (MTBE) was “Clear” each time. Also, the “Visual observation RT” value is “Slurry” in data set [1] (Acetone); “Clear” in data set [1] (EtOAc); “Slurry” in data set [1] (Heptane); “Clear” in data set [1] (Isopropanol); “Slurry” in data set [1] (MTBE). Moreover, the “% remaining at time point” value in data set [2] (0 min) is given as 100%; in data set [2] (15 min) it was 123.2%; in data set [2] (120 min), 73.5%; in data set [2] (480 min), 54.4%; in data set [2] (1440 min) it was 46.4%.

As to `CCCCCCCCCCCCCCCC(=O)Oc1ccc2c3c1O[C@H]1C(=O)CC[C@@]4(O)C(C2)N(CC2CC2)CC[C@]314` [Compound 55, (4aS,7aR,12bS)-3-(cyclopropylmethyl)-4a-hydroxy-7-oxo-2,3,4,4a,5,6,7,7a-octahydro-1H-4,12-methanobenzofuro[3,2-e]isoquinolin-9-yl palmitate], the “Approximate Solubility … Cottonseed oil” value under setting [4] is under 50 mg/mL and the “Approximate Solubility … Cottonseed oil” value under setting [5] is on record as over 400.1 mg/mL. Under “Ethanol, heating temp. 60 °C, obs. temp. 40 °C”, the “Approximate Solubility (mg/mL) in Excipient: Ethanol” value is listed as over 401.1 mg/mL. Further, the “Approximate Solubility (mg/mL) in Excipient: Sesame oil” value is, setting by setting: under setting [4], under 50 mg/mL; under setting [5], over 394.8 mg/mL. For the same compound, the “Equilibrium solubility (mg/mL) Water” value (compound after slurry in EtOAc, temperatures N/A) is under 0.0005 mg/mL. Besides, the “Dry method and appearance” value in data set [1] (Acetone), in data set [1] (EtOAc), in data set [1] (Heptane), in data set [1] (Isopropanol) and in data set [1] (MTBE) was “Evaporation/white powder” each time. Further, the “XRPD results (Dried)” value in data set [1] (Acetone), in data set [1] (EtOAc), in data set [1] (Heptane), in data set [1] (Isopropanol) and in data set [1] (MTBE) was “Pattern B” each time. For the same compound, the “Visual observation 50° C.” value in data set [1] (Acetone), in data set [1] (EtOAc), in data set [1] (Heptane), in data set [1] (Isopropanol) and in data set [1] (MTBE) was “Clear” throughout. Further, the “Visual observation RT” value in data set [1] (Acetone) is reported as “Slurry”; in data set [1] (EtOAc), “Slurry”; in data set [1] (Heptane), “Slurry”; in data set [1] (Isopropanol), “Slurry”; in data set [1] (MTBE) it was “Clear”. Further, the “% remaining at time point” value in data set [2] (0 min) came to 100%; in data set [2] (15 min) it was 77.3%; in data set [2] (120 min), 47.2%; in data set [2] (480 min) it was 27.1%; in data set [2] (1440 min) it was 15.6%.

Usually solubility stands for the concentration that dissolves in the medium under given conditions. One may read the solubility (thermodynamic) as the concentration in solution at equilibrium with solid. Turning to `C=C1CC[C@@]2(O)C3Cc4ccc(OC(=O)CCCCCCCCCCC)c5c4[C@@]2(CCN3CC2CC2)[C@H]1O5` [Compound 59, (4aS,7aS,12bS)-3-(cyclopropylmethyl)-4a-hydroxy-7-methylene-2,3,4,4a,5,6,7,7a-octahydro-1H-4,12-methanobenzofuro[3,2-e]isoquinolin-9-yl dodecanoate, reference compound], the solubility at 24 h in data set [3] (oil or lipid, Approximate Solubility (mg/mL) in Excipient: Cottonseed oil, Cottonseed oil) was over 414 mg/mL; in data set [3] (oil or lipid, Approximate Solubility (mg/mL) in Excipient: Sesame oil, Sesame oil), over 393 mg/mL. This compound also had a solubility (thermodynamic) in data set [3] (40 °C, water) of under 0.001 mg/mL. Also, the “% remaining at time point” value was determined as 100% in data set [2] (0 min); 5.9% in data set [2] (15 min); 0.7% in data set [2] (120 min); 0.2% in data set [2] (480 min); 0% in data set [2] (1440 min).

For `C=C1CC[C@@]2(O)[C@H]3Cc4ccc(O)c5c4[C@@]2(CCN3CC2CC2)[C@H]1O5` [nalmefene, 17-cyclopropylmethyl-4,5α-epoxy-6-methylenemorphinan-3,14-diol], the solubility was under 25 mg/mL in data set [3] (40 °C, oil or lipid, Approximate Solubility (mg/mL) in Excipient: Cottonseed oil, Cottonseed oil); under 25.5 mg/mL in data set [3] (40 °C, oil or lipid, Approximate Solubility (mg/mL) in Excipient: Sesame oil, Sesame oil); 102 to 137 mg/mL (≈ 300 to 404 mM) in data set [3] (40 °C, organic solvent or mixture, Approximate Solubility (mg/mL) in Excipient: Ethanol, Ethanol).
